Assay [1] deals with E. coli O157:H7 strain ATCC43895. As to the kind of experiment: Microbial adhesion assay: detachment of 3H-thymidine labeled bacteria from beef tissue by wash. It is filed as cell-based.
Assay [2] deals with E. coli serotype O157:H7 (strain ATCC43895). It is filed as cell-based.

Like-named read-outs stand apart in the source and are kept apart here.

Data on 4 compounds can be found in US7375080B1, “Immobilized lactoferrin (Im-LF) antimicrobial agents and uses thereof” (priority 1999, dated 2008).

On to `CC(O)C(=O)O` (stereo not drawn) [Lactic acid (2%), Lactic acid], for which the “% BACTERIAL CELLS DETACHED IN 1-MINUTE” value stood at 68% in assay [1], 75% in assay [1] (Lean tissue (beef)) and 62% in assay [1] (Surface tissue (neck) (beef)).
Consider `[Cl-].[Na+]` [0.1 M sodium chloride, sodium chloride], for which the “GROWTH (%)” value in assay [2] is given as 100%.
On the same count and under the same terms, under `O=C([O-])O.[Na+]` [0.01 M sodium bicarbonate, sodium bicarbonate] stands 112%; under `O=C(O)CC(O)(CC(=O)O)C(=O)O` [0.001 M citric acid, citric acid], 103%.
